We go through one compound from PMC4309560, “Creating Novel Activated Factor XI Inhibitors through Fragment Based Lead Generation and Structure Aided Drug Design” (PLoS ONE, 2015).

The structures appear in SMILES notation.

The target in data set [1] is Recombinant human trypsin (Homo sapiens, UniProt P07477). Description: biochemical. Particulars: read-out: Trypsin % inhibition at 99 μM. How it is done: (§1) Enzymatic assay. […] Selected compounds were also screened against other serine proteases to evaluate their selectivity profiles.
(§2) Once the compounds were synthesized and characterized, enzymatic assays were performed to evaluate the inhibitory activity of the resulting compounds against FXIa and other serine proteases. […] IC50 values for the compounds were determined using equation: Q= V/(1+([I]/IC50)^n) Q denotes the assay readout, V denotes the uninhibited velocity of the enzyme, [I] denotes the inhibitor concentration, n denotes the slope and IC50 is the inhibitor concentration at V/2.
Trypsin. Recombinant human trypsin was from Polymun, Vienna, Austria.

For data set [2], the target named is Human FXa (Homo sapiens, UniProt P00742). As to the kind of experiment: biochemical. The note with it: read-out: FXa % inhibition at 99 μM. How it is done: as §1, §2
The target in data set [3] is Human FIXa (Homo sapiens, UniProt P00740). As to the kind of experiment: biochemical. Particulars: read-out: FIXa % inhibition at 99 μM. The procedure: as §1, §2
In data set [4] the test system is rat hepatocytes. Description: Rat hepatocyte metabolic stability assay. Type of data set: in vitro ADME. The procedure:
Rat hepatocyte metabolic stability was determined in accordance with the method described by Jacobson et al.. Cryo preserved hepatocytes at a concentration of 10^6 viable cells/mL were used. After thawing, hepatocytes were incubated for 10 min to warm to 37°C and test compounds, dissolved in acetonitrile, were added to give a final concentration of 1 μM. At 0.5, 5, 15, 30, 45, 60, 80, 100 and 120 min, the incubation system was mixed and 20 μL aliquots were transferred at each time point to wells in a separate plate filled with 80 μL acetonitrile to stop the reaction. The quenching plate was then vortexed followed by centrifugation, and supernatants were analyzed by LC/MS/MS. Peak areas were determined from extracted ion chromatograms, and the in vitro intrinsic clearance (in vitro CLint, in μL/min/10^6 cells) of parent compound was calculated from the slope in the regression analysis of the natural logarithm of parent concentration vs. time curve.

Data set [5] concerns the target T1, Human plasmin (Homo sapiens, UniProt P00747).
T1 construct: Human plasmin was from Enzyme Research Laboratories, Swansea, UK; purchased Enzyme Research Laboratories, Swansea, UK
Description: Plasmin chromogenic assay. Type of data set: biochemical. The note with it: read-out: Plasmin % inhibition at 99 μM. The procedure: as §1, §2
[S] denotes the substrate concentration.
Plasmin. Human plasmin was from Enzyme Research Laboratories, Swansea, UK.

Data set [6] deals with T2, Human FXIa (Homo sapiens, UniProt P03951).
T2 construct: purchased HTI, Essex Junction, USA
As to the kind of experiment: FXIa enzymatic chromogenic assay. Type of data set: biochemical.

The nature of data set [7]: Chromatographic determination of lipophilicity. Particulars: reversed-phase UPLC, Waters BEH C18 stationary phase, pH 7.4; measured by liquid chromatography, pH7.4. Type of data set: physicochemical. An excerpt: The chromatographic data was obtained utilizing a Waters Aquity UPLC chromatographic system running a gradient from 5–95% acetonitrile at pH7.4. The stationary phase was a Waters BEH C18 2.1x50 mm. Standardized retention data were obtained by normalization against a set of compounds with precisely determined (octanol/water) logD-values. Lipophilicity values for samples were derived from a corresponding calibration curve.

Data set [8] can be described thus: In vivo rat PK. The note with it: female, Sprague Dawley, plasma, intravenous; rat in vivo; read-out: Rat CL (in vivo clearance). The procedure: Two days prior to dosing, female Sprague Dawley rats were prepared by cannulation of the left carotid artery for blood sampling and by cannulation of the right jugular vein for intravenous administration. The catheters were filled with heparin (100 IU/mL), exteriorized at the nape of the neck and sealed. The surgery was performed under isoflurane (Forene®, Abbott) anesthesia. After surgery the rats were housed individually and had free access to food and water. About 16 h prior to dosing the animals were deprived of food, and fasted until 4 h after dosing. The rats had free access to drinking water during the experiment. On the experiment day, the test item formulation was administered orally by gavage or intravenously in the jugular vein. At pre-defined time points, blood samples of about 0.150 mL were withdrawn from the carotid artery up to 24h after dosing. A total of 10 samples were withdrawn. The blood samples were collected in heparinized plastic tubes and centrifuged, within 30 min, for five min at 10 000 g and +4°C. The plasma was transferred to a 96 well plate and stored at -20°C until analysis by LC/MS/MS. The studies were approved by the Göteborg Animal Research Ethical Board.

T2 sequence (P03951 388-625): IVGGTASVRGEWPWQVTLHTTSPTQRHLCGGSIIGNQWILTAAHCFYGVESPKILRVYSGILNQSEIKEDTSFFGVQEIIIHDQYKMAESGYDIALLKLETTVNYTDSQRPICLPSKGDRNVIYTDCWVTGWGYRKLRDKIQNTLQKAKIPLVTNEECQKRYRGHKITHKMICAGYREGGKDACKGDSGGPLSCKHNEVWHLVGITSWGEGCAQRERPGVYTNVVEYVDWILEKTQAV
T2 sequence (P03951 19-387): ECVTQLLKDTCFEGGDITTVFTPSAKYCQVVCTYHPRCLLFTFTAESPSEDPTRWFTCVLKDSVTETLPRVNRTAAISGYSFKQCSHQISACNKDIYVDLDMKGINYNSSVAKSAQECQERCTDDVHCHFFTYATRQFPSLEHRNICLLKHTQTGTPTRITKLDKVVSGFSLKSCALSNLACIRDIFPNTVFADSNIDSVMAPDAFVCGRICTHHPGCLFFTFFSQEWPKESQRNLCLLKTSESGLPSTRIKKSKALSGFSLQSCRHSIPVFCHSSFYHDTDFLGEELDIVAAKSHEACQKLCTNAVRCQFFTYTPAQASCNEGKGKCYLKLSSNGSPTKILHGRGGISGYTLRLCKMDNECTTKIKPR
Human FIXa, sequence (P00740 227-461 limits assumed): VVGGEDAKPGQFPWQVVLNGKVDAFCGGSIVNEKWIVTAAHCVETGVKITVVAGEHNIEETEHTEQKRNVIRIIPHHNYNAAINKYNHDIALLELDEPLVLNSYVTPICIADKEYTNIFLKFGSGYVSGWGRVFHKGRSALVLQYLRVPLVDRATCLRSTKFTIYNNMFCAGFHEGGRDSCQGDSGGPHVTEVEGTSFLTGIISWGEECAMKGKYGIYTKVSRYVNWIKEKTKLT
Human FIXa, sequence (P00740 47-191 partner limits assumed): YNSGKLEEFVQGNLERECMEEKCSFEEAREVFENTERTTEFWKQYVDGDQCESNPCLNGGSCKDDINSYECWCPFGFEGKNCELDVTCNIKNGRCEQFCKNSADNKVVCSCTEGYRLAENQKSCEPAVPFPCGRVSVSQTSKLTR
T1 sequence (P00747 581-810 limits assumed): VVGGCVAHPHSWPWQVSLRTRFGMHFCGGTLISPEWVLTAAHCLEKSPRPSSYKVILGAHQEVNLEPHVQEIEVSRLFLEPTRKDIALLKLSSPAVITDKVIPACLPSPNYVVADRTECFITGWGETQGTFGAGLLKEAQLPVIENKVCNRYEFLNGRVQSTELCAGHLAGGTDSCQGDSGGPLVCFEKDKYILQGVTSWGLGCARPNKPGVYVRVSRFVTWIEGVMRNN
T1 sequence (P00747 97-580 partner limits assumed): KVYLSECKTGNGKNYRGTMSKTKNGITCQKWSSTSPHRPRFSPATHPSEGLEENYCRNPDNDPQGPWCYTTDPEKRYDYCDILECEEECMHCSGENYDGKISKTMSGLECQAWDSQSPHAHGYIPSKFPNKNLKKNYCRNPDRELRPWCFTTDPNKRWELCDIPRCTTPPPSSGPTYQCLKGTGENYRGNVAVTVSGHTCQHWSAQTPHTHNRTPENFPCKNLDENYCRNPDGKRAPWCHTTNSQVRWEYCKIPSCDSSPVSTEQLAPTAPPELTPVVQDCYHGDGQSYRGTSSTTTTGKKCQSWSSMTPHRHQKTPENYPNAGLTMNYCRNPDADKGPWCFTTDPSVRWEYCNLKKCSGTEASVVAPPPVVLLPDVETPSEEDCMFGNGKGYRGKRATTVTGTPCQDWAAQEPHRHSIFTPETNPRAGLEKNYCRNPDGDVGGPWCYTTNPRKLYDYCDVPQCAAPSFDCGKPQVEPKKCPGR
Human FXa, sequence (P00742 235-488 limits assumed): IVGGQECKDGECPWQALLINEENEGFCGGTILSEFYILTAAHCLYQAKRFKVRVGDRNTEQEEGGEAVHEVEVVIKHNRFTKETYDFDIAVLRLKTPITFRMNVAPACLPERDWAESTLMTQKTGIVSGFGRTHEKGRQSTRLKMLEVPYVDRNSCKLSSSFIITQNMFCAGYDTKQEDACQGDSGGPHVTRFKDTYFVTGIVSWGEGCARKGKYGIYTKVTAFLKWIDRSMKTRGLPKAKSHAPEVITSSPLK
Human FXa, sequence (P00742 41-179 partner limits assumed): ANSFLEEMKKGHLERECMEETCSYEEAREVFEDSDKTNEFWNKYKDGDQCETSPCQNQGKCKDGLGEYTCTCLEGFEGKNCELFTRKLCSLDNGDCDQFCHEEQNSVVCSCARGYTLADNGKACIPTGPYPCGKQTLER

By inhibition is commonly meant the relative decrease from the control value, in per cent. As a reminder, the IC50 is the concentration at which inhibition is half-maximal. Read a low IC50 as higher potency. The Ki is the equilibrium dissociation constant of an inhibitor or competing ligand from its target. For orientation: chromatographic logD means a lipophilicity value derived from retention on a column. For orientation: clearance means the rate of elimination divided by the concentration. Consider `O=C(N[C@@H](Cc1ccccc1)C(=O)NCc1cc(=O)[nH]c2ccc(Cl)cc12)c1ccc2[nH]c(=O)cc(O)c2c1` [Compound 13, (S)-N-(1-{(6-Chloro-2-oxo-1,2-dihydroquinolin-4-yl)methylamino}-1-oxo-3-phenylpropan-2-yl)-4-hydroxy-2-oxo-1,2-dihydroquinoline-6-carboxamide], for which the inhibition at 99 µM in data set [1] amounted to 12%; in data set [2], 18%; in data set [3], 2%; in data set [5] it was 14%. Also, in data set [4], the “Rat CLint” value was determined as 22 μL/min/ 1·10^6 cells. The compound further yielded an IC50 in data set [6] of 1 nM. Further, in data set [6] (FXIa), the “ligand efficiency (LE)” value worked out at 0.32. In addition, in data set [6] (FXIa, term of the ΔG link equation), the “ΔG (binding free energy)” value is -12.7 kcal/mol. In addition, the “ΔG link (linker contribution)” value in data set [6] (compound 13 relative to fragments 5 and 15) was -3.13 kcal/mol. The Ki in data set [6] (read-out: FXIa Ki) is 0.5 nM. The chromatographic logD in data set [7] is 0.87. In data set [8], the clearance worked out at 130 mL/min/kg.
